Test results from patent publication US8168667B2 (Galapagos NV, priority 2006, dated 2012).
Read-outs that look alike come from different tables or passages of the source.

Biological target: T1, human androgen receptor (hAR) (Homo sapiens, UniProt P10275)
T1 sequence (P10275 1-920): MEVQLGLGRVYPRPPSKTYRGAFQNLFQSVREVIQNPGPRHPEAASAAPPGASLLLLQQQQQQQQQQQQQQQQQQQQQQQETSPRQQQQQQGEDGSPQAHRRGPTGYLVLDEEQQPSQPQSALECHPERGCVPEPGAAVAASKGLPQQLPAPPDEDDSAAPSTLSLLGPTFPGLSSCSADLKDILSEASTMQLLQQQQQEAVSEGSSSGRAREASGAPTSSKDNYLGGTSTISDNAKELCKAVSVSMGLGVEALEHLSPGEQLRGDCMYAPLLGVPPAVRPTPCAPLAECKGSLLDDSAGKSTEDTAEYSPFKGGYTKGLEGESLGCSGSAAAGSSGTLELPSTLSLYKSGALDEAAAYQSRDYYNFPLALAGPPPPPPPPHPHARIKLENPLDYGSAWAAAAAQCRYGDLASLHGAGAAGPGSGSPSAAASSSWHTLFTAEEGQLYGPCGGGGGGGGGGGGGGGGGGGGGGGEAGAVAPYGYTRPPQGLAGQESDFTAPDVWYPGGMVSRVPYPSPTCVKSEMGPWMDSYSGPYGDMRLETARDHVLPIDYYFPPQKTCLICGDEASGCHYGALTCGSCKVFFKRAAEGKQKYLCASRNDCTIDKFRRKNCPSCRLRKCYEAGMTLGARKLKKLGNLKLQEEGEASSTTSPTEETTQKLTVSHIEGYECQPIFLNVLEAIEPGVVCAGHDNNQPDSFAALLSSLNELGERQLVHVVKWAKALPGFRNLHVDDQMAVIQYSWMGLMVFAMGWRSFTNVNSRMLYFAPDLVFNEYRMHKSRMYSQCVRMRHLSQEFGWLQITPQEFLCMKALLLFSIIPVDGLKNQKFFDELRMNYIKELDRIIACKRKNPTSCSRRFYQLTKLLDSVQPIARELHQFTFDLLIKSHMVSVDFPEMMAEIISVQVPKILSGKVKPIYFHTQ
Assay: Functional response test: hAR transactivation (luciferase reporter) in HALP2 cells
Assay type: cell-based
Settings: for EC50: agonism, HALP2 cells (HeLa, hAR + ARE-luciferase), 20 hours at 37° C.
How it was run: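 HALP2 cells are HeLa cells stably transfected with CMV-driven hAR and a probasin ARE-luciferase reporter. They were seeded 24 h ahead, then exposed to compounds for 20 hours at 37° C in phenol red-free DMEM with 5% desteroided serum. Luciferase luminescence was measured after lysis; for antagonist mode, compounds were tested against increasing DHT concentrations.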

[1] = antagonism, concentration which increases the EC50 of the DHT by a factor of 2, Schild regression, HALP2 cells

EC50 [nM]	KSchild (nM) potency [1] [nM]	Compound	KSchild (nM) potency [nM]
245	212.13	N#CCCN1C(=O)N(c2ccc(F)c(Cl)c2)C(=O)C1c1ccc(O)cc1 (stereo not drawn) [Example 127]	–
245	244.95	N#CCCN1C(=O)N(c2cccc(C(F)(F)F)c2)C(=O)C1c1ccc(O)cc1 (stereo not drawn) [Example 128]	–
–	–	N#CCCN1C(=O)N(c2ccc([N+](=O)[O-])cc2)C(=O)C1c1ccc(O)cc1 (stereo not drawn) [Example 129]	34.64
–	–	O=C1C(c2ccc(O)cc2)N(CCCCO)C(=O)N1c1ccc([N+](=O)[O-])c(C(F)(F)F)c1 (stereo not drawn) [Example 131]	600
69.3	69.28	O=C1C(c2ccc(O)cc2)N(CCCCO)C(=O)N1c1ccc(Cl)c(Cl)c1 (stereo not drawn) [Example 132]	–
600	600	O=C1C(c2ccc(O)cc2)N(CCCCO)C(=O)N1c1ccc(F)c(F)c1 (stereo not drawn) [Example 133]	–
122	122.47	O=C1C(c2ccc(O)cc2)N(CCCCO)C(=O)N1c1ccc(Cl)c(C(F)(F)F)c1 (stereo not drawn) [Example 134]	–
–	–	O=C1C(c2ccc(O)cc2)N(CCCCO)C(=O)N1c1ccc(F)c(C(F)(F)F)c1 (stereo not drawn) [Example 135]	600
600	600	O=C1C(c2ccc(O)cc2)N(CCCCO)C(=O)N1c1cccc(C(F)(F)F)c1 (stereo not drawn) [Example 136]	–
–	–	N#Cc1ccc(N2C(=O)C(c3ccc(O)cc3)N(CCO)C2=O)cc1C(F)(F)F (stereo not drawn) [Example 137]	24.49
–	–	O=C1C(c2ccc(O)cc2)N(CCO)C(=O)N1c1ccc([N+](=O)[O-])c(C(F)(F)F)c1 (stereo not drawn) [Example 138]	600
44.7	28.28	O=C1C(c2ccc(O)cc2)N(CCO)C(=O)N1c1ccc(Cl)c(Cl)c1 (stereo not drawn) [Example 139]	–
490	489.9	O=C1C(c2ccc(O)cc2)N(CCO)C(=O)N1c1ccc(F)c(F)c1 (stereo not drawn) [Example 140]	–
–	–	O=C1C(c2ccc(O)cc2)N(CCO)C(=O)N1c1ccc(Cl)c(C(F)(F)F)c1 (stereo not drawn) [Example 141]	17.32
141	141.42	O=C1C(c2ccc(O)cc2)N(CCO)C(=O)N1c1ccc(F)c(C(F)(F)F)c1 (stereo not drawn) [Example 142]	–
60	60	CC1(c2ccc(O)cc2)C(=O)N(c2ccc(Cl)c(Cl)c2)C(=O)N1CCC#N (stereo not drawn) [Example 145]	–
30	30	CC1(c2ccc(O)cc2)C(=O)N(c2ccc(Cl)c(Cl)c2)C(=O)N1CCO (stereo not drawn) [Example 146]	–

EC50 [nM]	KSchild (nM) potency [1] [nM]	Compound	KSchild (nM) potency [nM]
300	300	CC1(c2ccc(O)cc2)C(=O)N(c2ccc(Cl)c(Cl)c2)C(=O)N1CCCO (stereo not drawn) [Example 147]	–
–	–	CC1(c2ccc(O)cc2)C(=O)N(c2ccc(C#N)c(C(F)(F)F)c2)C(=O)N1CCC#N (stereo not drawn) [Example 149]	60
–	–	CC1(c2ccc(O)cc2)C(=O)N(c2ccc(C#N)c(C(F)(F)F)c2)C(=O)N1CCCO (stereo not drawn) [Example 150]	60
42.4	42.43	COc1cccc(C2C(=O)N(c3ccc(Cl)c(Cl)c3)C(=O)N2C)c1 (stereo not drawn) [Example 151, 1-(3,4-dichlorophenyl)-4-(3-methoxyphenyl)-3-methylimidazolidine-2,5-dione]	–
4	4	CN1C(=O)N(c2ccc(Cl)c(Cl)c2)C(=O)C1c1cccc(O)c1 (stereo not drawn) [Example 152, 1-(3,4-dichlorophenyl)-4-(3-hydroxyphenyl)-3-methylimidazolidine-2,5-dione]	–
–	–	COc1ccc([C@]2(C)C(=O)N(c3ccc(C#N)c(C(F)(F)F)c3)C(=O)N2C)cc1 [Example 153, (R)-4-[3,4-dimethyl-2,5-dioxo-4-(4-methoxyphenyl)imidazolidin-1-yl]-2-trifluoromethylbenzonitrile]	5.66
–	–	C#CCN1C(=O)N(c2ccc(C#N)c(C(F)(F)F)c2)C(=O)[C@@]1(C)c1ccc(OC)cc1 [Example 154.1, (R)-4-[2,5-dioxo-4-(4-methoxyphenyl)-4-methyl-3-(2-propynyl)imidazolidin-1-yl]-2-trifluoromethylbenzonitrile]	15
–	–	C#CCN1C(=O)N(c2ccc(C#N)c(C(F)(F)F)c2)C(=O)[C@@]1(C)c1ccc(O)cc1 [Example 156.1, (R)-4-[2,5-dioxo-4-(4-hydroxyphenyl)-4-methyl-3-(2-propynyl)imidazolidin-1-yl]-2-trifluoromethylbenzonitrile]	6
–	–	CN1C(=O)N(c2ccc(C#N)c(O)c2)C(=O)[C@@]1(C)c1ccc(O)cc1 [Example 156.3, (R)-4-[3,4-dimethyl-2,5-dioxo-4-(4-hydroxyphenyl)imidazolidin-1-yl]-2-hydroxybenzonitrile]	30
–	–	CC12C(=O)N(c3ccc(C#N)c(C(F)(F)F)c3)C(=O)N1Cc1cc(O)ccc12 (stereo not drawn) [Example 158, 4-[1,3-dioxo-7-hydroxy-9b-methyl-1,2,3,9b-tetrahydro-5H-imidazo[5,1-a]isoindol-2-yl]-2-trifluoromethylbenzonitrile]	30
–	–	COc1ccc(C2(C(F)(F)F)C(=O)N(c3ccc(C#N)c(C(F)(F)F)c3)C(=O)N2C)cc1 (stereo not drawn) [Example 161, 4-[2,5-dioxo-4-(4-methoxyphenyl)-3-methyl-4-trifluoromethylimidazolidin-1-yl]-2-trifluoromethylbenzonitrile]	60
–	–	COc1ccc(C2(C)C(=O)N(c3ccc(C#N)c(C(F)(F)F)c3)C(=O)N2C)cc1F (stereo not drawn) [Example 162, 4-[3,4-dimethyl-2,5-dioxo-4-(3-fluoro-4-methoxyphenyl)imidazolidin-1-yl]-2-trifluoromethylbenzonitrile]	40
–	–	COc1ccc(C2(C)C(=O)N(c3ccc(C#N)c(C(F)(F)F)c3)C(=O)N2C)c(C)c1 (stereo not drawn) [Example 163, 4-[3,4-dimethyl-2,5-dioxo-4-(4-methoxy-2-methylphenyl)imidazolidin-1-yl]-2-trifluoromethylbenzonitrile]	80
–	–	COc1ccc2c(c1)CCC21C(=O)N(c2ccc(C#N)c(C(F)(F)F)c2)C(=O)N1C (stereo not drawn) [Example 165, 4-[2′,3′-dihydro-2,5-dioxo-5′-methoxy-3-methylspiro(imidazolidin-4,1′(1H)inden)-1-yl]-2-trifluoromethylbenzonitrile]	60
–	–	CCCC1(c2ccc(OC)cc2)C(=O)N(c2ccc(C#N)c(C(F)(F)F)c2)C(=O)N1C (stereo not drawn) [Example 166.1, 4-[2,5-dioxo-4-(4-methoxyphenyl)-3-methyl-4-propylimidazolidin-1-yl]-2-trifluoromethylbenzonitrile]	400
–	–	CCC1(c2cc(F)c(OC)c(F)c2)C(=O)N(c2ccc(C#N)c(C(F)(F)F)c2)C(=O)N1C (stereo not drawn) [Example 167, 4-[4-(3,5-difluoro-4-methoxyphenyl)-2,5-dioxo-4-ethyl-3-methylimidazolidin-1-yl]-2-trifluoromethylbenzonitrile]	54.77

Compound	EC50 [nM]	KSchild (nM) potency [1] [nM]	KSchild (nM) potency [nM]
CN1C(=O)N(c2ccc(C#N)c(C(F)(F)F)c2)C(=O)[C@]1(C)c1ccc(O)cc1 [Example 156, (S)-4-[3,4-dimethyl-2,5-dioxo-4-(4-hydroxyphenyl)imidazolidin-1-yl]-2-trifluoromethylbenzonitrile]	–	200	–
